Test results reported in patent US20240299376A1, “METHOD OF TREATING A CONDITION USING A […] EFFECTIVE DOSE OF 1-(1-OXO-1,2-DIHYDROISOQUINOLIN-5-YL)-5-(TRIFLUOROMETHYL)-N-(2-(TRIFLUOROMETHYL)PYRIDIN-4-YL)-1H-PYRAZOLE-4-CARBOXAMIDE” (Janssen Pharmaceutica NV, priority 2021, published 2024).
Like-named read-outs stand apart in the source and are kept apart here.

Columns and labels:
B-cell lymphoma lines = experiment: Anti-proliferative activity, panel of 10 B-cell lymphoma lines (general cytotoxicity); type: cell-based
Experimental: (§1) Four ABC-DLBCL cell lines with activating mutations in the canonical NFκB pathway were evaluated (OCI-LY3 (CARD11, MYD88 & A20 mutations), TMD8, HBL1, and OCI-LY10 (CD79B & MYD88 mutations)), which are generally sensitive to NF-κB pathway inhibition. None of the GCB-DLBCL cell lines harbor mutations in the NF-κB pathway. The GCB-DLBCL cell lines served as a negative control to exclude compounds with general cytotoxic effects.
(§2) At concentrations ≥20 μM general cytotoxicity was observed.

[1] = tested on: OCI-LY3 human DLBCL xenografts; experiment: Antitumor efficacy in established OCI-LY3 human DLBCL xenografts; type: in vivo, NSG mice
Experimental: The human ABC-DLBCL cell line OCI-LY3 was obtained from Dr. Miguel A Piris, Hospital Universitario Marques de Valdecilla, Santander, Spain. The human ABC-DLBCL cell line OCI-LY-10 was obtained from University Hospital Network, Ontario Cancer Institute. OCY-LY3 cells were maintained at 37° C. in a humidified atmosphere (5% CO2, 95% air), in RPMI-1640 medium with GlutaMAX™, supplemented with 10% Fetal Bovine Serum (Heat Inactivated at 57° C., and 1% Penicillin-Streptomycin). Each mouse received 1×10^6 cells in serum-free RPMI-1640 medium or PBS with Matrigel basement matrix […] in a total volume of 0.2 mL. Cells were implanted SC in the right flank using a 1 ml syringe and a 26-gauge needle. The day of tumor implantation was designated as Day 0.
Tumor volume was calculated using the formula: tumor volume (mm^3)=(Dxd^2/2); where ‘D’ represents the larger diameter, and ‘d’ the smaller diameter of the tumor as determined by caliper measurements. Tumor volume data was graphically represented as the mean tumor volume±SEM.
Percent tumor growth inhibition (TGI) was defined as the difference between mean tumor volumes of the treated and control group, calculated as
where TVc is the mean tumor volume of a given control group and TVt is the mean tumor volume of the treatment group. As defined by National Cancer Institute criteria, ≥60% TGI is considered biologically significant.
Group tumor volumes are graphed as the mean+/−SEM. Mice were implanted SC on the right flank on Day 0.
For study 3, animals were randomly assigned into treatment groups, when the OCI-LY3 mean tumor volume was 164 mm^3 (Day 32 post-tumor cell implantation). Treatment was initiated on the day of randomization (Day 32). After 28 days of treatment on Day 60, serum was collected at 2, 4, and 12 hours post last dose for the bid treated groups or 2, 4 and 24 hours post last dose for qd treated groups in cohorts of 5 mice. Blood was collected from the retro-orbital sinus and submitted for bioanalytical analysis.

OCT-Ly7 (no NF-κB mut) = experiment: Anti-proliferative activity, DLBCL cell line panel; type: cell-based; conditions: 192 h; antiproliferation after 8 days of treatment
Experimental: as §1, §2

SU-DHL4 (no NF-κB mut) = experiment: Anti-proliferative activity, DLBCL cell line panel; type: cell-based; conditions: Homo sapiens, SU-DHL-4, 192 h; antiproliferation after 8 days of treatment
Experimental: as §1, §2

[2] = tested on: TMD8 (CD79b/Myd88/A20 mut); experiment: Anti-proliferative activity, DLBCL cell line panel; type: cell-based; conditions: Homo sapiens, TMD8, 192 h; antiproliferation after 8 days of treatment
Experimental: as §1, §2

OCI-Ly1 (no NF-κB mut) = experiment: Anti-proliferative activity, DLBCL cell line panel; type: cell-based; conditions: Homo sapiens, OCI-Ly1, 192 h; antiproliferation after 8 days of treatment
Experimental: as §1, §2

[3] = tested on: HBL1 (CD79b/Myd88/A20 mut); experiment: Anti-proliferative activity, DLBCL cell line panel; type: cell-based; conditions: HBL1, 192 h; antiproliferation after 8 days of treatment
Experimental: as §1, §2

[4] = tested on: OCI-LY3 (Myd88/CARD11 A20 mut); experiment: Anti-proliferative activity, DLBCL cell line panel; type: cell-based; conditions: Homo sapiens
Experimental: as §1, §2

Single IV dose plasma PK [5] = type: in vivo, monkey
Experimental: (§3) Single intravenous (IV) dose PK was conducted in mice (two strains), rats, monkeys, and dogs at a dose of 1 mg/kg in 70% PEG400 (PEG400/water 70:30) by bolus injection. The time course for plasma sample was optimized to fully characterize the disposition profile in each species. PK analysis was by non-compartmental method.

Single IV dose plasma PK [6] = type: in vivo, rat; conditions: for C0 / Vd / AUC(0-inf) / clearance / half-life: male, plasma, S-D; for C0 / Vd: Rat; for Vd / AUC(0-inf) / clearance / half-life: iv, 1 mg/kg; for Vd: read-out: Vdss
Experimental: as §3

Single IV dose plasma PK [7] = type: in vivo, dog
Experimental: as §3

[8] = male, plasma, Monkey, cynomolgus, 3M, 1 mg/kg IV in 70% PEG400, mean
[9] = Sprague-Dawley (S-D), rat, 3M, 1 mg/kg IV in 70% PEG400 (-AAA), mean
[10] = Sprague-Dawley (S-D), rat, 6M, 1 mg/kg IV, dosed as the -ZAF salt
[11] = male, plasma, Dog, beagle, 3M, 1 mg/kg IV in 70% PEG400, mean

Question: For `O=C(Nc1ccnc(C(F)(F)F)c1)c1cnn(-c2cccc3c(=O)[nH]ccc23)c1C(F)(F)F` [Compound A, 1-(1-oxo-1,2-dihydroisoquinolin-5-yl)-5-(trifluoromethyl)-N-[2-(trifluoromethyl)pyridin-4-yl]-1H-pyrazole-4-carboxamide], which “concentrations at which general cytotoxicity was observed” value (B-cell lymphoma lines) is on record?
Answer: ≥ 20 µM

Question: What about the TGI ([1]; 1 mg/kg BID PO, 4 weeks, vs vehicle control) of the same compound?
Answer: 37%

Question: And the “TGI (%) at day 28” value ([1]; 1 mg/kg, bid (Table 4))?
Answer: 46%

Question: And the TGI ([1]; 3 mg/kg BID PO, 4 weeks, vs vehicle control)?
Answer: 19%

Question: What about the “TGI (%) at day 28” value ([1]; 3 mg/kg, bid (Table 4)) of the same compound?
Answer: 23%

Question: And the TGI ([1]; 10 mg/kg BID PO, 4 weeks, vs vehicle control)?
Answer: 53%

Question: And the “mean TGI” value ([1]; 10 mg/kg BID, 3 independent OCI-LY3 antitumor efficacy studies)?
Answer: 60%

Question: And the TGI ([1]; 10 mg/kg BID, previous efficacy studies in the OCI-LY3 model)?
Answer: 51-76%

Question: And the TGI ([1]; 10 mg/kg, 8/16 hr split schedule instead of 12/12 hr)?
Answer: 57%

Question: What about the “TGI (%) at day 28” value ([1]; 10 mg/kg, bid (Table 4)) of the same compound?
Answer: 66%

Question: And the TGI ([1]; 30 mg/kg BID PO, 4 weeks, vs vehicle control)?
Answer: 72%

Question: What about the TGI ([1]; 30 mg/kg BID, previous efficacy studies in the OCI-LY3 model) of the same compound?
Answer: 60-86%

Question: What about the “TGI (%) at day 28” value ([1]; 30 mg/kg, bid (Table 4)) of the same compound?
Answer: 90%

Question: What about the TGI ([1]; 60 mg/kg QD PO, 4 weeks, vs vehicle control) of the same compound?
Answer: 57%

Question: What about the “TGI (%) at day 28” value ([1]; 60 mg/kg, qd (Table 4)) of the same compound?
Answer: 71%

Question: And the TGI ([1]; 100 mg/kg BID PO, 4 weeks, vs vehicle control)?
Answer: 72%

Question: And the “TGI (%) at day 28” value ([1]; 100 mg/kg, bid (Table 4))?
Answer: 90%

Question: And the TGI ([1]; 100 mg/kg, previous efficacy studies in the OCI-LY3 model)?
Answer: 62-89%

Question: And the tolerability ([1]; 1 to 100 mg/kg (BID or QD), OCI-LY3 and OCI-LY10 xenograft models in NSG mice)?
Answer: well tolerated

Question: And the minimum efficacious dose ([1]; BID, OCI-LY3 model)?
Answer: 10 mg/kg

Question: And the IC50 (OCT-Ly7 (no NF-κB mut))?
Answer: > 10 µM

Question: And the IC50 (SU-DHL4 (no NF-κB mut))?
Answer: 6 µM

Question: What about the IC50 [2] of the same compound?
Answer: 0.635 µM

Question: And the IC50 (OCI-Ly1 (no NF-κB mut))?
Answer: > 10 µM

Question: And the IC50 [3]?
Answer: 0.547 µM

Question: What about the IC50 ([4]; OCI-Ly3, 192 h, antiproliferation after 8 days of treatment) of the same compound?
Answer: 0.496 µM

Question: What about the IC50 ([4]; Proliferation, OCI-LY3) of the same compound?
Answer: 0.496 ± 0.262 µM

Question: What about the AUC(0-inf) (Single IV dose plasma PK [5]; [8]) of the same compound?
Answer: 16400 ng·h/mL

Question: What about the C0 (Single IV dose plasma PK [5]; [8]) of the same compound?
Answer: 1840 ng/mL

Question: What about the clearance (Single IV dose plasma PK [5]; [8]) of the same compound?
Answer: 1.12 mL/min/kg

Question: And the half-life (Single IV dose plasma PK [5]; [8])?
Answer: 11.9 h

Question: And the Vd (Single IV dose plasma PK [5]; male, plasma, Monkey, cynomolgus, 3M, 1 mg/kg IV in 70% PEG400, mean, read-out: Vdss)?
Answer: 0.748 L/kg

Question: What about the “CL as fraction of liver blood flow (LBF)” value (Single IV dose plasma PK [5]; monkey, LBF 43.6 mL/min/kg) of the same compound?
Answer: 1.7%

Question: And the C0 (Single IV dose plasma PK [6]; Sprague-Dawley (S-D), 6M, 1 mg/kg IV, dosed as the -ZAF salt, mean)?
Answer: 1450 ng/mL

Question: What about the Vd (Single IV dose plasma PK [6]; [9]) of the same compound?
Answer: 0.86 L/kg

Question: And the Vd (Single IV dose plasma PK [6]; [10])?
Answer: 0.622 L/kg

Question: What about the AUC(0-inf) (Single IV dose plasma PK [6]; [9]) of the same compound?
Answer: 7950 ng·h/mL

Question: What about the clearance (Single IV dose plasma PK [6]; [9]) of the same compound?
Answer: 2.15 mL/min/kg

Question: What about the half-life (Single IV dose plasma PK [6]; [9]) of the same compound?
Answer: 10 h

Question: And the AUC(0-inf) (Single IV dose plasma PK [6]; [10])?
Answer: 9780 ng·h/mL

Question: What about the clearance (Single IV dose plasma PK [6]; [10]) of the same compound?
Answer: 1.7 mL/min/kg

Question: What about the half-life (Single IV dose plasma PK [6]; [10]) of the same compound?
Answer: 5.33 h

Question: What about the C0 (Single IV dose plasma PK [6]; Sprague-Dawley, 3M, 1 mg/kg IV in 70% PEG400 (-AAA), mean) of the same compound?
Answer: 2200 ng/mL

Question: What about the “CL as fraction of liver blood flow (LBF)” value (Single IV dose plasma PK [6]; rat, LBF 55.2 mL/min/kg) of the same compound?
Answer: 1.5%

Question: And the “CL as fraction of liver blood flow (LBF)” value (Single IV dose plasma PK [7]; dog, LBF 30.9 mL/min/kg)?
Answer: 3.0%

Question: And the AUC(0-inf) (Single IV dose plasma PK [7]; [11])?
Answer: 23100 ng·h/mL

Question: And the C0 (Single IV dose plasma PK [7]; [11])?
Answer: 2070 ng/mL

Question: And the clearance (Single IV dose plasma PK [7]; [11])?
Answer: 0.772 mL/min/kg

Question: And the half-life (Single IV dose plasma PK [7]; [11])?
Answer: 16.9 h

Question: And the Vd (Single IV dose plasma PK [7]; male, plasma, Dog, beagle, 3M, 1 mg/kg IV in 70% PEG400, mean, read-out: Vdss)?
Answer: 1.01 L/kg
